In brackets after ≈: the same amount, converted by molar mass.
Target: Cathepsin S (Homo sapiens, UniProt P25774)
Sequence (P25774 whole entry): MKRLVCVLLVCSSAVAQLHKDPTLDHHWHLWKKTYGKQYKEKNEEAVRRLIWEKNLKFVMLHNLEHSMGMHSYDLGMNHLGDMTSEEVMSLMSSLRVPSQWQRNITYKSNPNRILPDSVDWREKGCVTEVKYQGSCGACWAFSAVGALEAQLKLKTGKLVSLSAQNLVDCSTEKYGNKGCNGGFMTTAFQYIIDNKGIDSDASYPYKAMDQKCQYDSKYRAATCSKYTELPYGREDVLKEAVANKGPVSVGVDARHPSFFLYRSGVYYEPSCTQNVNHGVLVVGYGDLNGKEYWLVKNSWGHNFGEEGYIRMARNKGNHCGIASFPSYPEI
Test: Inhibition of cathepsin S
Assay type: single protein
Settings: not given
C[C@@H](CN1CC(C)(C)c2cc(F)ccc21)NC(=O)[C@H](CC1CCCCC1)NC(=O)N1CCOCC1 gave a Ki of 11 nM. CC[C@@H](CNc1ccc(OC(F)(F)F)cc1)NC(=O)[C@H](CC1CCCCC1)NC(=O)N1CCOCC1 showed a Ki of 11 nM. O=C(N[C@@H](CC1CCCCC1)C(=O)NCCNc1ccc(OC(F)(F)F)cc1)c1ccc(-c2cccc(F)c2)o1 showed a Ki of 34 nM. Work on C[C@@H](CNc1ccc(OC(F)(F)F)cc1)NC(=O)[C@H](CC1CCCCC1)NC(=O)O[C@H]1CCOC1 yielded a Ki of 49 nM. C[C@@H](CNc1ccc(OC(F)(F)F)cc1)NC(=O)[C@H](CSCc1ccccc1)NC(=O)N1CCOCC1 showed a Ki of 12 nM.

Target: T1, Cathepsin K (Homo sapiens, UniProt P43235)
T1 sequence (P43235 whole entry): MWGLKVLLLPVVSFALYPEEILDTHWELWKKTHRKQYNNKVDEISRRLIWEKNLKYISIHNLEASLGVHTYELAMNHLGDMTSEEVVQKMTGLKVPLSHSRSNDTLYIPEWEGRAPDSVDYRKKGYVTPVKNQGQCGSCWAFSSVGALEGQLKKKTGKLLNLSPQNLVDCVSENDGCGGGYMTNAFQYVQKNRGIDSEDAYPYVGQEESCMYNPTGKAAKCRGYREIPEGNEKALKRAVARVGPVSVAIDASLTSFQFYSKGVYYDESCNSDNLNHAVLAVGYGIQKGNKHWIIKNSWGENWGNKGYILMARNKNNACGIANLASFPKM
Test: Inhibition of cathepsin K
Assay type: single protein
Settings: not given
In the case of C[C@@H](CNc1ccc(OC(F)(F)F)cc1)NC(=O)[C@H](CS(=O)(=O)Cc1ccccc1)NC(=O)N1CCOCC1, the Ki is reported as > 100000 nM. Compound C[C@@H](CN1CC(C)(C)c2cc(F)ccc21)NC(=O)[C@H](CC1CCCCC1)NC(=O)N1CCOCC1 has a Ki of 16900 nM. With CC[C@@H](CNc1ccc(OC(F)(F)F)cc1)NC(=O)[C@H](CC1CCCCC1)NC(=O)N1CCOCC1 the Ki was 130 nM. With O=C(N[C@@H](CC1CCCCC1)C(=O)NCCNc1ccc(OC(F)(F)F)cc1)c1ccc(-c2cccc(F)c2)o1 the Ki was 11700 nM. For C[C@@H](CNc1ccc(OC(F)(F)F)cc1)NC(=O)[C@H](CC1CCCCC1)NC(=O)O[C@H]1CCOC1, the Ki was > 30000 nM. Work on C[C@@H](CNc1ccc(OC(F)(F)F)cc1)NC(=O)[C@H](CSCc1ccccc1)NC(=O)N1CCOCC1 yielded a Ki of 2480 nM.

Target: T2, Cathepsin F (Homo sapiens, UniProt Q9UBX1)
T2 sequence (Q9UBX1 whole entry): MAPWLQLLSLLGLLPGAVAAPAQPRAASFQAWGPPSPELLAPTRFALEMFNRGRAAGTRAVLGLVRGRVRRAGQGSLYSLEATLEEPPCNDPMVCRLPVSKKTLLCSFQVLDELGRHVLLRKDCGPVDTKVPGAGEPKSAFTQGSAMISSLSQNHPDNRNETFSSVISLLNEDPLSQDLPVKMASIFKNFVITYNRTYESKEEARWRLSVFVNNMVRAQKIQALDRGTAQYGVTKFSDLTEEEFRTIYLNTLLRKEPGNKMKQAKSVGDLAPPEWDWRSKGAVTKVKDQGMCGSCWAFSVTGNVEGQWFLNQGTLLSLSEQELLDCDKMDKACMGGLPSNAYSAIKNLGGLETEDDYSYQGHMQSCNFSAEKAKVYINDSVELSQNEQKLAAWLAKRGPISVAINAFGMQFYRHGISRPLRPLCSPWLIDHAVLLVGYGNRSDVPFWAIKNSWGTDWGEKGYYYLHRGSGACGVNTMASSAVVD
Test: Inhibition of cathepsin F
Settings: not given
In the case of C[C@@H](CNc1ccc(OC(F)(F)F)cc1)NC(=O)[C@H](CS(=O)(=O)Cc1ccccc1)NC(=O)N1CCOCC1, the Ki is reported as > 30000 nM.

Target: T3, Pro-cathepsin H (Homo sapiens, UniProt P09668)
T3 sequence (P09668 whole entry): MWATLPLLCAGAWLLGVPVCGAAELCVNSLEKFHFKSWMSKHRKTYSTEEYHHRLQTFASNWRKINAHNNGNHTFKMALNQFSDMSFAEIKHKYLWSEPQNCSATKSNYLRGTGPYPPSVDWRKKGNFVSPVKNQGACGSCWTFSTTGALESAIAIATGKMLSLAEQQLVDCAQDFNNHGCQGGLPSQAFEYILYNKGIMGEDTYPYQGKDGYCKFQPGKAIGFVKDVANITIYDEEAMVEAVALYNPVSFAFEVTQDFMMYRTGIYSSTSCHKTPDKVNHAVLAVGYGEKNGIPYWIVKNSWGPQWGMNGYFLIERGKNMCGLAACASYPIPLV
Test: Inhibition of cathepsin H
Settings: not given
For C[C@@H](CNc1ccc(OC(F)(F)F)cc1)NC(=O)[C@H](CS(=O)(=O)Cc1ccccc1)NC(=O)N1CCOCC1, the Ki was > 30000 nM.

Target: T4, Cathepsin L2 (Homo sapiens, UniProt O60911)
T4 sequence (O60911 whole entry): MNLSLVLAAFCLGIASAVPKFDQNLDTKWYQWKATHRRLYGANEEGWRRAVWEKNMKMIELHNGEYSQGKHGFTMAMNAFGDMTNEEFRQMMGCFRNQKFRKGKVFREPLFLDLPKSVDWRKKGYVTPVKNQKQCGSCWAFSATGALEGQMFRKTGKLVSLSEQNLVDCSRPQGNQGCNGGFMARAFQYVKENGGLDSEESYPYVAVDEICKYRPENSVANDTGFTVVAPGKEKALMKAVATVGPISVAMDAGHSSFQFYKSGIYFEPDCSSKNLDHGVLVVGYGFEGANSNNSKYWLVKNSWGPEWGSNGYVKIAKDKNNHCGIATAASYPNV
Test: Inhibition of cathepsin V
Settings: not given
For C[C@@H](CNc1ccc(OC(F)(F)F)cc1)NC(=O)[C@H](CS(=O)(=O)Cc1ccccc1)NC(=O)N1CCOCC1, the Ki was > 30000 nM.

Target: Cathepsin Z (Homo sapiens, UniProt Q9UBR2)
Sequence (Q9UBR2 whole entry): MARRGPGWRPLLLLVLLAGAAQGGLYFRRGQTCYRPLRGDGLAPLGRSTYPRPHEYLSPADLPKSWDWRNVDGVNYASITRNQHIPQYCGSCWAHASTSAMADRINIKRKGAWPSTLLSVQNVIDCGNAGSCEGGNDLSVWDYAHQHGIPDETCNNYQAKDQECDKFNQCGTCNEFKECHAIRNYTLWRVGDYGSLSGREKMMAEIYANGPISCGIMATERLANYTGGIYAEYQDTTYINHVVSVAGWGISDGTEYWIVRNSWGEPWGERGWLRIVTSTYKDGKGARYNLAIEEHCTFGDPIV
Test: Inhibition of cathepsin X
Settings: not given
With C[C@@H](CNc1ccc(OC(F)(F)F)cc1)NC(=O)[C@H](CS(=O)(=O)Cc1ccccc1)NC(=O)N1CCOCC1 the Ki was > 30000 nM.

Target: Cathepsin B (Homo sapiens, UniProt P07858)
Test: Inhibition of cathepsin B
Settings: not given
In the case of C[C@@H](CNc1ccc(OC(F)(F)F)cc1)NC(=O)[C@H](CS(=O)(=O)Cc1ccccc1)NC(=O)N1CCOCC1, the Ki is reported as > 30000 nM.

System: not listed separately
Test: Solubility at pH 6.8
Assay type: physicochemical
Settings: buffer
Work on COc1ccc(NCCNC(=O)[C@H](CC2CCCCC2)Nc2nc3ccccc3o2)cc1 yielded a solubility of 10 µg/mL (≈ 22.9 µM). C[C@@H](CNc1ccc(OC(F)(F)F)cc1)NC(=O)[C@H](CS(=O)(=O)Cc1ccccc1)NC(=O)N1CCOCC1 gave a solubility of 43 µg/mL (≈ 75.1 µM). For COc1ccc(NCCNC(=O)[C@H](CC2CCCCC2)NC(=O)c2ccc(-c3cccc(C(F)(F)F)c3)o2)cc1, the solubility was < 1 µg/mL. Compound C[C@@H](CN1CC(C)(C)c2cc(F)ccc21)NC(=O)[C@H](CC1CCCCC1)NC(=O)N1CCOCC1 has a solubility of 10 µg/mL (≈ 20.5 µM).

System: Liver microsomes
Test: Stability in rat liver microsomes
Assay type: ADME, Microsome
Settings: not given
Compound COc1ccc(NCCNC(=O)[C@H](CC2CCCCC2)Nc2nc3ccccc3o2)cc1 has a Stability of 4%. For C[C@@H](CNc1ccc(OC(F)(F)F)cc1)NC(=O)[C@H](CS(=O)(=O)Cc1ccccc1)NC(=O)N1CCOCC1, the Stability was 100%. Work on COc1ccc(NCCNC(=O)[C@H](CC2CCCCC2)NC(=O)c2ccc(-c3cccc(C(F)(F)F)c3)o2)cc1 yielded a Stability of 12%. For C[C@@H](CN1CC(C)(C)c2cc(F)ccc21)NC(=O)[C@H](CC1CCCCC1)NC(=O)N1CCOCC1, the Stability was < 1%.

System: not listed separately
Test: Half life in Wistar rat at 3 mg/kg, iv
Assay type: ADME, organism-based
Parameters: dose 3 mg/kg, route intravenous
Settings: in vivo
C[C@@H](CNc1ccc(OC(F)(F)F)cc1)NC(=O)[C@H](CS(=O)(=O)Cc1ccccc1)NC(=O)N1CCOCC1 showed a half-life of 0.817 h.

System: not listed separately
Test: Clearance in Wistar rat at 3 mg/kg, iv
Assay type: ADME, organism-based
Parameters: dose 3 mg/kg, route intravenous
Settings: in vivo
C[C@@H](CNc1ccc(OC(F)(F)F)cc1)NC(=O)[C@H](CS(=O)(=O)Cc1ccccc1)NC(=O)N1CCOCC1 showed a clearance of 39 mL/min/kg.

System: not listed separately
Test: Volume of distribution in Wistar rat at 3 mg/kg, iv
Assay type: ADME, organism-based
Parameters: dose 3 mg/kg, route intravenous
Settings: in vivo, read-out: Vdss
Compound C[C@@H](CNc1ccc(OC(F)(F)F)cc1)NC(=O)[C@H](CS(=O)(=O)Cc1ccccc1)NC(=O)N1CCOCC1 has a Vd of 0.87 L/kg.

System: not listed separately
Test: Half life in Wistar rat at 10 mg/kg, po
Assay type: ADME, organism-based
Parameters: dose 10 mg/kg, route oral
Settings: in vivo
Compound C[C@@H](CNc1ccc(OC(F)(F)F)cc1)NC(=O)[C@H](CS(=O)(=O)Cc1ccccc1)NC(=O)N1CCOCC1 has a half-life of 1.1 h. With COc1ccc(NCCNC(=O)[C@H](CC2CCCCC2)NC(=O)c2ccc(-c3cccc(C(F)(F)F)c3)o2)cc1 the half-life was 2.43 h.

System: not listed separately
Test: Cmax in Wistar rat at 10 mg/kg, po
Assay type: ADME, organism-based
Parameters: dose 10 mg/kg, route oral
Settings: in vivo
Compound C[C@@H](CNc1ccc(OC(F)(F)F)cc1)NC(=O)[C@H](CS(=O)(=O)Cc1ccccc1)NC(=O)N1CCOCC1 has a Cmax of 639 nM. For COc1ccc(NCCNC(=O)[C@H](CC2CCCCC2)NC(=O)c2ccc(-c3cccc(C(F)(F)F)c3)o2)cc1, the Cmax was 19 nM.

System: not listed separately
Test: AUC in Wistar rat at 10 mg/kg, po
Assay type: ADME, organism-based
Parameters: dose 10 mg/kg, route oral
Settings: plasma
C[C@@H](CNc1ccc(OC(F)(F)F)cc1)NC(=O)[C@H](CS(=O)(=O)Cc1ccccc1)NC(=O)N1CCOCC1 gave an AUC of 700 ng·h/mL. For COc1ccc(NCCNC(=O)[C@H](CC2CCCCC2)NC(=O)c2ccc(-c3cccc(C(F)(F)F)c3)o2)cc1, the AUC was 50 ng·h/mL.

System: not listed separately
Test: Bioavailability in Wistar rat at 10 mg/kg, po
Assay type: ADME, organism-based
Settings: in vivo
For COc1ccc(NCCNC(=O)[C@H](CC2CCCCC2)Nc2nc3ccccc3o2)cc1, the bioavailability was < 1%. In the case of C[C@@H](CNc1ccc(OC(F)(F)F)cc1)NC(=O)[C@H](CS(=O)(=O)Cc1ccccc1)NC(=O)N1CCOCC1, the bioavailability is reported as 16%.

Target: Procathepsin L (Homo sapiens, UniProt P07711)
Sequence (P07711 whole entry): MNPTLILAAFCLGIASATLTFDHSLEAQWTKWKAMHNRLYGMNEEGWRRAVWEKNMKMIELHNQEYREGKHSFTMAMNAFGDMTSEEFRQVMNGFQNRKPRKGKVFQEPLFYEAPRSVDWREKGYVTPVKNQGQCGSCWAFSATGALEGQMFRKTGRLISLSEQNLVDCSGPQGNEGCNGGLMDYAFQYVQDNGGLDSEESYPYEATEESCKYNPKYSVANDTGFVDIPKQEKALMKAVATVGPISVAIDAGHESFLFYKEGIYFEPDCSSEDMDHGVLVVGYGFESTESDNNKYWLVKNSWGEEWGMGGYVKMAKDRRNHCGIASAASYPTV
Settings: not given
With C[C@@H](CNc1ccc(OC(F)(F)F)cc1)NC(=O)[C@H](CS(=O)(=O)Cc1ccccc1)NC(=O)N1CCOCC1 the Ki was > 30000 nM. In the case of C[C@@H](CN1CC(C)(C)c2cc(F)ccc21)NC(=O)[C@H](CC1CCCCC1)NC(=O)N1CCOCC1, the Ki is reported as 810 nM. CC[C@@H](CNc1ccc(OC(F)(F)F)cc1)NC(=O)[C@H](CC1CCCCC1)NC(=O)N1CCOCC1 gave a Ki of 6 nM. Compound C[C@@H](CNc1ccc(OC(F)(F)F)cc1)NC(=O)[C@H](CC1CCCCC1)NC(=O)O[C@H]1CCOC1 has a Ki of 594 nM.
